The subject of assay [1] is HCT116 WT cells. Nature of the assay: HCT116 WT cell proliferation / viability (CellTiter-Glo, 6 days). It counts as cell-based. As to conditions: Homo sapiens, HCT-116, 144 h, read-out: HCT-116 WT IC50. A digest of the protocol:
(§1)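 IC50 values derive from sigmoidal dose-response fits, some with Hill slope fixed at −1 and top constrained to 100%, others from 4-parameter logistic models. They reflect CellTiter-Glo viability after 6 days of compound exposure at up to 10 or 50 μM.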
(ATP-based viability assays read luminescence as a measure of living cells.)

Assay [2] has as its system HCT116 MTAP null cells. The assay is described as follows: HCT116 MTAP null cell proliferation / viability (CellTiter-Glo, 6 days). Particulars: HCT116-MTAP null, 144 h, read-out: HCT-116 MTAP null IC50. The class given is cell-based. A digest of the protocol: as §1
Where [3] appears, read: HCT116 WT cells, 6 days, CellTiter-Glo.
The mark [4] stands for this setting: HCT116 MTAP null cells, 6 days, CellTiter-Glo.

pIC50: −log10 of the molar value. Read-outs that look alike come from different tables or passages of the source. Some results are limits rather than exact numbers.

Our source for the IC50 values is US20240101570A1 (AMGEN INC., priority 2020, published 2024).

Broadly, the pIC50 is −log10 of the IC50, conventionally taken in molar units.

Regarding `COCC(C)N(Cc1ccc(C(F)(F)F)nn1)C(=O)c1ccc2nc(N)c3c(c2c1)COC3` (racemic) [Example 303, 4-amino-N-((2R)-1-methoxy-2-propanyl)-N-((6-(trifluoromethyl)-3-pyridazinyl)methyl)-1,3-dihydrofuro[3,4-c]quinoline-8-carboxamide and 4-amino-N-((2S)-1-methoxy-2-propanyl)-N-((6-(trifluoromethyl)-3-pyridazinyl)methyl)-1,3-dihydrofuro[3,4-c]quinoline-8-carboxamide], the pIC50 was 6.24 in assay [1] (setting [3]) and 7.62 in assay [2] (setting [4]).
On to `Nc1nc2cnc(C(=O)N(Cc3ccc(C(F)(F)F)cn3)c3cnn(C(F)(F)F)c3)cc2c2c1COC2` [Example 732, 4-amino-N-(1-(trifluoromethyl)-1H-pyrazol-4-yl)-N-((5-(trifluoromethyl)-2-pyridinyl)methyl)-1,3-dihydrofuro[3,4-c][1,7]naphthyridine-8-carboxamide], for which the negative logarithm of the IC50 (pIC50) in assay [1] (setting [3]) is 5.55; in assay [2] (setting [4]) it was 7.06.
The like results for `COc1cc(C(F)(F)F)cnc1[C@@H](C)N(C)C(=O)c1cc2c(cc1F)nc(N)c1c2cnn1C` (single isomer, unassigned) [Example 866] were, in that order, 4.95 and 6.51.
On to `CC1OCc2c1c(N)nc1ccc(C(=O)N(Cc3ccc(C(F)(F)F)cn3)C3CCCC3C#N)cc21` (stereo not shown) [Example 897, 4-amino-N-(2-cyanocyclopentyl)-3-methyl-N-((5-(trifluoromethyl)pyridin-2-yl)methyl)-1,3-dihydrofuro[3,4-c]quinoline-8-carboxamide], for which the negative logarithm of the IC50 (pIC50) is 6.96 in assay [1] (setting [3]) and 7.62 in assay [2] (setting [4]).
Turning to `CC(C)CN(Cc1ccc(C(F)(F)F)cn1)C(=O)c1ccc2nc(N)c3c(c2c1)COC3(C)C` [Example 889], the pIC50 in assay [1] was 5.32; in assay [2] it was 6.69.
As to `CCN(Cc1ccc(OC(F)F)nn1)C(=O)c1cc2c3c(c(N)nc2cc1F)COC3` [Example 724, 4-amino-N-((6-(difluoromethoxy)-3-pyridazinyl)methyl)-N-ethyl-7-fluoro-1,3-dihydrofuro[3,4-c]quinoline-8-carboxamide], the negative logarithm of the IC50 (pIC50) is 5.61 in assay [1] (setting [3]) and 7.27 in assay [2] (setting [4]).
For `CN(Cc1ccc(C(F)(F)F)cn1)C(=O)c1cc2c(cc1C(F)(F)F)nc(N)c1cnn(C)c12` [Example 810, 4-amino-N,1-dimethyl-7-(trifluoromethyl)-N-((5-(trifluoromethyl)-2-pyridinyl)methyl)-1H-pyrazolo[4,3-c]quinoline-8-carboxamide], in that order: 4.86 and 6.65.
The like results for `CCN(C(=O)c1cc2c3c(c(N)nc2cc1F)[C@H](C)OC3)[C@H](C)c1ccc(C(F)(F)F)nn1` [Example 785, (3S)-4-amino-N-ethyl-7-fluoro-3-methyl-N-((1R)-1-(6-(trifluoromethyl)-3-pyridazinyl)ethyl)-1,3-dihydrofuro[3,4-c]quinoline-8-carboxamide] were, in that order, 4.70 and 6.07.
The like results for `Nc1nc2cnc(C(=O)N(Cc3ccc(C(F)(F)F)cn3)CC3CC3)cc2c2c1COC2` [Example 652, 4-amino-N-(cyclopropylmethyl)-N-((5-(trifluoromethyl)pyridin-2-yl)methyl)-1,3-dihydrofuro[3,4-c][1,7]naphthyridine-8-carboxamide] were, in that order, 5.86 and 7.30.
Regarding `CO[C@H]1COCC[C@@H]1N(Cc1ccc(C(F)(F)F)cn1)C(=O)c1ccc2nc(N)c3c(c2c1)COC3C` (stereo partly drawn) [Example 903, 4-amino-N-((3R,4S)-3-methoxytetrahydro-2H-pyran-4-yl)-3-methyl-N-((5-(trifluoromethyl)pyridin-2-yl)methyl)-1,3-dihydrofuro[3,4-c]quinoline-8-carboxamide], the figures for the negative-log IC50 (pIC50) in assay [1] (setting [3]) and in assay [2] (setting [4]) were 5.40 and 7.24, respectively.
Take `C[C@H](c1ccc(C(F)(F)F)nn1)N(C)C(=O)c1cc2c3c(c(N)nc2cc1F)[C@@H](C)OC3` (single isomer, unassigned) [Example 862]: the figures for the negative logarithm of the IC50 (pIC50) in assay [1] (setting [3]) and in assay [2] (setting [4]) were 5.66 and 7.51, respectively.
Take `Cc1nc(CN(C)C(=O)c2ccc3nc(N)c4c(c3c2)COC4)ccc1Br` [Example 677, 4-amino-N-((5-bromo-6-methyl-2-pyridinyl)methyl)-N-methyl-1,3-dihydrofuro[3,4-c]quinoline-8-carboxamide]: the negative logarithm of the IC50 (pIC50) in assay [1] (setting [3]) is < 5.00; in assay [2] (setting [4]), 6.61.
For `Nc1nc2cnc(C(=O)N(Cc3ccc(OC(F)F)nn3)CC3CC3)cc2c2c1COC2` [Example 418, 4-amino-N-(cyclopropylmethyl)-N-((6-(difluoromethoxy)-3-pyridazinyl)methyl)-1,3-dihydrofuro[3,4-c][1,7]naphthyridine-8-carboxamide], in that order: 5.20 and 6.77.
As to `Nc1nc2ccc(C(=O)N(Cc3ccc(C(F)(F)F)cn3)Cc3ncccn3)cc2c2cnccc12` [Example 631, 5-amino-N-(2-pyrimidinylmethyl)-N-((5-(trifluoromethyl)-2-pyridinyl)methyl)benzo[c][2,6]naphthyridine-9-carboxamide], the figures for the negative logarithm of the IC50 (pIC50) in assay [1] (setting [3]) and in assay [2] (setting [4]) were 6.67 and 8.00, respectively.
The like results for `C[C@H]1OCc2c1c(N)nc1ccc(C(=O)N(Cc3ccc(C(F)(F)F)nn3)C3CCC3)cc21` [Example 722, (3R)-4-amino-N-cyclobutyl-3-methyl-N-((6-(trifluoromethyl)-3-pyridazinyl)methyl)-1,3-dihydrofuro[3,4-c]quinoline-8-carboxamide] were, in that order, 5.47 and 7.07.
For `N#Cc1ccc(CN(C(=O)c2ccc3nc(N)c4c(c3c2)COC4)C2CCCn3ncnc32)nc1` (racemic) [Example 448, 4-amino-N-((5-cyano-2-pyridinyl)methyl)-N-((8R)-5,6,7,8-tetrahydro[1,2,4]triazolo[1,5-a]pyridin-8-yl)-1,3-dihydrofuro[3,4-c]quinoline-8-carboxamide and 4-amino-N-((5-cyano-2-pyridinyl)methyl)-N-((8S)-5,6,7,8-tetrahydro[1,2,4]triazolo[1,5-a]pyridin-8-yl)-1,3-dihydrofuro[3,4-c]quinoline-8-carboxamide], the pIC50 in assay [1] (setting [3]) is 5.68; in assay [2] (setting [4]), 6.91.
For `Nc1nc2cc(F)c(C(=O)N(Cc3ccc(C(F)(F)F)nn3)C3CC3)cc2c2c1COC2` [Example 357, 4-amino-N-cyclopropyl-7-fluoro-N-((6-(trifluoromethyl)-3-pyridazinyl)methyl)-1,3-dihydrofuro[3,4-c]quinoline-8-carboxamide], in that order: 5.37 and 6.94.
As to `C[C@H](c1cnc(C(F)(F)F)cn1)N(C)C(=O)c1cc2c(cc1F)nc(N)c1cnn(C)c12` [Example 780, 4-amino-7-fluoro-N,1-dimethyl-N-((1R)-1-(5-(trifluoromethyl)-2-pyrazinyl)ethyl)-1H-pyrazolo[4,3-c]quinoline-8-carboxamide], the figures for the negative logarithm of the IC50 (pIC50) in assay [1] (setting [3]) and in assay [2] (setting [4]) were 5.93 and 7.66, respectively.
The like results for `Nc1nc2cc(F)c(C(=O)N(Cc3ccc(OC(F)F)nn3)C3CCC3)cc2c2c1COC2` [Example 509, 4-amino-N-cyclobutyl-N-((6-(difluoromethoxy)-3-pyridazinyl)methyl)-7-fluoro-1,3-dihydrofuro[3,4-c]quinoline-8-carboxamide] were, in that order, 6.06 and 7.40.
For `C[C@H](c1ccc(C(F)(F)F)nn1)N(C)C(=O)c1cc2c(cc1C(F)(F)F)nc(N)c1cnn(C)c12` (single isomer, unassigned) [Example 879], in that order: 4.91 and 6.74.
The like results for `COC[C@@H](C)N(Cc1ccc(Br)nn1)C(=O)c1cc2c3c(c(N)nc2cn1)[C@@H](C)OC3` [Example 410, (3R)-4-amino-N-((6-bromo-3-pyridazinyl)methyl)-N-((2R)-1-methoxy-2-propanyl)-3-methyl-1,3-dihydrofuro[3,4-c][1,7]naphthyridine-8-carboxamide] were, in that order, 5.49 and 7.06.
Regarding `CC1OCc2c1c(N)nc1ccc(C(=O)N(Cc3ccc(C(F)(F)F)cn3)C3CCOC3)cc21` (stereo not shown) [Example 899, 4-amino-3-methyl-N-(tetrahydrofuran-3-yl)-N-((5-(trifluoromethyl)pyridin-2-yl)methyl)-1,3-dihydrofuro[3,4-c]quinoline-8-carboxamide], the pIC50 in assay [1] (setting [3]) is 5.01; in assay [2] (setting [4]), 6.89.
Take `C[C@@H](c1ccc(F)cn1)N(C)C(=O)c1cc2c(cc1Cl)nc(N)c1cnn(C)c12` (single isomer, unassigned) [Example 594]: the values for the negative-log IC50 (pIC50) in assay [1] (setting [3]) and in assay [2] (setting [4]) were 4.54 and 6.20, respectively.
The like results for `C[C@H](c1ncn(C)n1)N(Cc1ccc(C(F)F)cn1)C(=O)c1cc2c3c(c(N)nc2cn1)COC3` [Example 667, 4-amino-N-((5-(difluoromethyl)-2-pyridinyl)methyl)-N-((1R)-1-(1-methyl-1H-1,2,4-triazol-3-yl)ethyl)-1,3-dihydrofuro[3,4-c][1,7]naphthyridine-8-carboxamide] were, in that order, 5.15 and 6.03.
The like results for `C[C@H](c1ccc(C(F)(F)F)nn1)N(C)C(=O)c1cc2c(cc1F)nc(N)c1cnn(C)c12` (single isomer, unassigned) [Example 605] were, in that order, 6.10 and 7.85.
As to `Cn1ncc2c3cc(C(=O)N(Cc4ccc(C(F)(F)F)cn4)C4(C)CC4)ccc3nc(N)c21` [Example 494, 4-amino-3-methyl-N-(1-methylcyclopropyl)-N-((5-(trifluoromethyl)-2-pyridinyl)methyl)-3H-pyrazolo[3,4-c]quinoline-8-carboxamide], the pIC50 in assay [1] (setting [3]) is 5.04; in assay [2] (setting [4]), 6.55.
